The subject of data set [1] is collagen induced arthritis (CIA). As to conditions: prophylactic treatment, murine CIA model; cited from earlier work.
In data set [2] the test system is models of chronic and acute inflammatory diseases. The settings on record: MRL/lpr mouse lupus, hemorrhagic shock in rats, mouse CLP sepsis, mouse DSS-colitis, ApoE-/- arteriosclerosis, diabetic wound healing models; cited from earlier work.
The conditions of data set [3]: from COc1cc(C(=O)OC(C)C)cc2nc(-c3cc4ccc([C@@H](C)N)nc4n3CCCCCc3ccccc3C(=O)O)n(C)c12; amide bond; HATU; DCM; 24.6 mM; 25.0 °C; 16.0 h.
In the next data set the target is T1, human PAD4 (Homo sapiens, UniProt Q9UM07).
T1 construct: human PAD4 (NM_012387), A2-P663, was PCR amplified; His-SUMO (N, cleaved yes); made in house; host or cells: E. coli BL21(DE3)
Description: In vitro PAD4 BAEE biochemical assay. As to conditions: BAEE substrate 3 mM, 5 nM PAD4, 2 mM calcium chloride; geometric mean of multiple experiments. In outline:
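Recombinant PAD4 (5 nM final) with 2 mM CaCl2 was preincubated with compound for 30 min at 25 °C in MOPS pH 7.6 buffer with DTT, then reacted with 3 mM BAEE for 2 h at 25 °C. Released ammonia was detected fluorimetrically with o-phthalaldehyde/DTT; IC50 from four-parameter fit, geometric mean of experiments.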

As usually defined, the IC50 is the concentration needed to halve the response being measured.

T1 sequence (Q9UM07 2-663): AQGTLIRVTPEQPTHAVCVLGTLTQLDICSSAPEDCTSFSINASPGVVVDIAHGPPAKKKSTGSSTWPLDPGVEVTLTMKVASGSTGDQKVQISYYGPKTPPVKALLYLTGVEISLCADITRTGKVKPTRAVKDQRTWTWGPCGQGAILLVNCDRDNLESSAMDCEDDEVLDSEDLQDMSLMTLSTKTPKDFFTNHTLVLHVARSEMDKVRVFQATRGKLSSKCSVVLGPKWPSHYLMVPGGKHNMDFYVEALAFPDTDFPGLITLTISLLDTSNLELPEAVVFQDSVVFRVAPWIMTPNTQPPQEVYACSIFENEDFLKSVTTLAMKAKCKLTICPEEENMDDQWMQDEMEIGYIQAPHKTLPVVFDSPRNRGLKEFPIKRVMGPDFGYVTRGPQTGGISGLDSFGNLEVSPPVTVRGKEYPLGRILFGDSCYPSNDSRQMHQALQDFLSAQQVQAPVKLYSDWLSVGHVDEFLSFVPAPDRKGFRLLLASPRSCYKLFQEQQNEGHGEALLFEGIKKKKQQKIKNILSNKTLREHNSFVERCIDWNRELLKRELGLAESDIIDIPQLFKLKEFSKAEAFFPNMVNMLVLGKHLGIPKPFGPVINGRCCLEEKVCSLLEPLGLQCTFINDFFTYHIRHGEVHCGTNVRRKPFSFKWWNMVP

Take `NC(=O)[C@H](CCCN=C(N)CCl)NC(=O)c1ccccc1` [chloroamidine]: in data set [1], the “clinical and histological scores” value was “improvement of clinical and histological scores”. Besides, the “clinical, inflammatory, histopathological and mechanical end points” value in data set [2] is “reduction of clinical, inflammatory, histopathological and mechanical end points”. Regarding `CCn1c(-c2nc3cc(C(=O)N4CCC[C@@H](N)C4)cc(OC)c3n2C)cc2cccnc21.Cl` [GSK199], the “clinical and histological scores” value in data set [1] is “improvement of clinical and histological scores”. For `COc1cc(C(=O)OC(C)C)cc2nc(-c3cc4ccc5nc4n3CCCCCc3ccccc3C(=O)N[C@@H]5C)n(C)c12`, the ring closure, yield of all isomers in data set [3] amounted to 70.9%. As for YW3-56, the “clinical, inflammatory, histopathological and mechanical end points” value in data set [2] was “reduction of clinical, inflammatory, histopathological and mechanical end points”.

For the molecule `CO[C@@H]1CCN(C(=O)c2cc(F)c3c(c2)nc(-c2cc4ccc5nc4n2CC(F)(F)CCC[C@@H]2C[C@H]2C(=O)N[C@@H]5C)n3C2C[C@H]2F)C[C@@H]1N` (stereo partly shown) [Example 745, (2~{R},5~{R},7~{R})-14-[5-[(3~{S},4~{R})-3-amino-4-methoxy-piperidine-1-carbonyl]-7-fluoro-1-[(1~{S},2~{R})-2-fluorocyclopropyl]benzimidazol-2-yl]-11,11-difluoro-2-methyl-3,13,19-triazatetracyclo [11.5.2.0^{5,7}.0^{16,20}]icosa-1(19),14,16(20),17-tetraen-4-one], the IC50 on human PAD4 is 22 nM. The same measure, in the same setting: with `COc1cc(C(=O)N2C[C@H](N)[C@@H]3CC[C@H]2C3)cc2nc(-c3cc4ccc5nc4n3CCCCCc3cc(F)ccc3C(=O)N[C@@H]5C)n(C)c12` [Example 900, (2~{R})-17-[5-[(1~{S),4~{R}, 5~{R})-4-amino-2-azabicyclo [3.2.1]octane-2-carbonyl]-7-methoxy-1-methyl-benzimidazol-2-yl]-8-fluoro-2-methyl-3,16,22-triazatetracyclo[14.5.2.0^ {5,10}.0^{19,23}]tricosa-1(22),5(10),6,8,17,19(23),20-heptaen-4-one] the figure was 28 nM; with `COc1cc(C(=O)N2[C@H]3CC[C@@H]2[C@H](N)C3)cc2nc(-c3cc4ccc5nc4n3CCCCCC(=O)Nc3ncccc3-5)n(C)c12` [Example 92, 16-[5-[(1~{R},2~{R},4~{S})-2-amino-7-azabicyclo[2.2.1]heptane-7-carbonyl]-7-methoxy-1-methyl-benzimidazol-2-yl]-6,8,15,21-tetrazatetracyclo[13.5.2.0^{2,7}.0^{18,22}] docosa-1(21),2(7),3,5,16,18(22),19-heptaen-9-one], 175 nM. The same measure, in the same setting: with `COc1cc(C(=O)N[C@H]2CNCC[C@@H]2F)cc2nc(-c3cc4ccc5nc4n3CCCCCC(C)(C)C(=O)N[C@@H]5C)n(C)c12` [Example 76, ~{N}-[(3~{S),4~{S})-4-fluoro-3-piperidyl]-7-methoxy-1-methyl-2-[(10~{R})-7,7,10-trimethyl-8-oxo-1,9,18-triazatricyclo[9.5.2.0^{14,17}]octadeca-11(18),12,14(17),15-tetraen-16-yl]benzimidazole-5-carboxamide] the figure was 87 nM.

For the molecule `CCCO[C@@H]1CCN(C(=O)c2cc(OC)c3c(c2)nc(-c2cc4ccc5nc4n2CCCCCCC(C)(C)C(=O)N[C@@H]5C)n3C)C[C@@H]1N` [Example 103, (11~{R})-17-[5-[(3~{S},4~{R})-3-amino-4-propoxy-piperidine-1-carbonyl]-7-methoxy-1-methyl-benzimidazol-2-yl]-8,8,11-trimethyl-1,10,19-triazatricyclo[10.5.2.0^{15,18}]nonadeca-12(19),13,15(18),16-tetraen-9-one], on human PAD4, the IC50 worked out at 166 nM.

In the case of `CN[C@H]1CN(C(=O)c2cc(OC)c3c(c2)nc(-c2cc4ccc5nc4n2CCCCCCC(C)(C)C(=O)N[C@@H]5C)n3C)CC[C@H]1OC` [Example 105, (11~{R})-17-[7-methoxy-5-[(3~{S},4~{R})-4-methoxy-3-(methylamino)piperidine-1-carbonyl]-1-methyl-benzimidazol-2-yl]-8,8,11-trimethyl-1,10,19-triazatricyclo[10.5.2.0^{15,18}]nonadeca-12(19),13,15(18),16-tetraen-9-one], the IC50 on human PAD4 was 27400 nM.

On to `COc1cc(C(=O)N2[C@H]3CC[C@@H]2[C@H](N)C3)cc2nc(-c3cc4ccc5nc4n3CCCCc3cccc(c3F)C(=O)N[C@@H]5C)n(C)c12` [Example 38, (2~{R})-15-[5-[(1~{R},2~{R},4~{S})-2-amino-7-azabicyclo[2.2.1]heptane-7-carbonyl]-7-methoxy-1-methyl-benzimidazol-2-yl]-22-fluoro-2-methyl-3,14,20-triazatetracyclo[12.5.2.1^{5,9}.0^{17,21}] docosa-1(20),5,7,9(22),15,17(21),18-heptaen-4-one], for which the 50% inhibitory concentration (IC50) at human PAD4 came to 1200 nM.

As to `COc1cc(C(=O)N[C@H]2CNCC[C@@H]2F)cc2nc(-c3cc4ccc5nc4n3C[C@H]3C[C@H]3CCC[C@](C)(C(F)(F)F)C(=O)N[C@@H]5C)n(C)c12` [Example 371, 2-[(3~{S},5~{R},9~{S},12~{R})-9,12-dimethyl-10-oxo-9-(trifluoromethyl)-1,11,20-triazatetracyclo[11.5.2.0^{3,5}.0^{16,19}]icosa-13(20),14,16(19),17-tetraen-18-yl]-~{N}-[(3~{S},4~{S})-4-fluoro-3-piperidyl]-7-methoxy-1-methyl-benzimidazole-5-carboxamide], the IC50 at human PAD4 is 222 nM.

These data come from patent US11976083B2, “Inhibitors of peptidylarginine deiminases” (Gilead Sciences, Inc., priority 2020, dated 2024).
